Experimental data published in patent US11389544B2, “Formation of functionalized cancer targeting nanoparticles by supramolecular co-assembly” (RAMOT AT TEL-AVIV UNIVERSITY LTD., priority 2016, dated 2022).

Tested on: human pancreatic cancer cells (Panc-1)
Assay: Live cell imaging by confocal microscopy, binding/uptake to Panc-1 cells
Type: cell-based
Conditions: Panc-1, 2 h incubation, carboxyfluorescein loaded
Description: Carboxyfluorescein was encapsulated during the preparation of the nanoparticles. Following two hours of incubation with Panc-1 cancer cells, the cells were treated with concanavalin A (Con A) Alexa Fluor 647 conjugate. Live cell imaging analysis was performed by confocal microscopy (FIGS. 8 and 13). […] These findings support the proposed model for the co-assembly of the two peptides. As assumed, the co-assembly with Boc-FF which serves as a spacer, enabled the binding of PTR analog to the somatostatin receptor (FIG. 2b).
Panc-1 and HEK-293T cells were cultured (100,000 cells) on a cell culture dish with a glass bottom (35 mm, Greiner Bio-one). In the following day cells were incubated for two hours at 37° C. under various conditions: carboxyfluorescein (15 μM), Boc-FF (0.12 mM) and carboxyfluorescein (15 μM), Fmoc-FF-PEG2-PTR (0.3 mM) encapsulated with carboxyfluorescein (15 μM), PTR-3207-86 (0.3 mM), Fmoc-FF-PEG2-PTR (0.3 mM):Boc-FF (1:4) nanospheres encapsulated with carboxyfluorescein (15 μM). After incubation, cells were washed with PBS buffer and were treated with 10 μg/ml Concanavalin A (Con A) Alexa Fluor 647 Conjugate (Invitrogen, Carlsbad, Calif.) for 15 minutes and washed again with PBS. Live cell imaging was conducted using LSM 510 Meta confocal laser scanning microscope (Carl Zeiss, Jena, Germany).

carboxyfluorescein
fluorescence observed in cells (binding/uptake): No fluorescence was observed
